Laboratory results published in patent publication US20230399312A1, “SUBSTITUTED PYRIMIDINES AND METHODS OF USE” (THERAVANCE BIOPHARMA R&D IP, LLC, priority 2020, published 2023).

Experiments:
[1] = biological target: T1, recombinant human ALK5 (TGF-βR1) protein (Homo sapiens, UniProt P36897); assay: Biochemical ALK5 (TGF-βR1) assay to measure pKi (LANCE Ultra ULight kinase assay); conditions: apparent pKi, converted from pIC50 by Cheng-Prusoff
T1 construct: purchased Life Technologies PR9075A
T1 sequence (P36897 34-503): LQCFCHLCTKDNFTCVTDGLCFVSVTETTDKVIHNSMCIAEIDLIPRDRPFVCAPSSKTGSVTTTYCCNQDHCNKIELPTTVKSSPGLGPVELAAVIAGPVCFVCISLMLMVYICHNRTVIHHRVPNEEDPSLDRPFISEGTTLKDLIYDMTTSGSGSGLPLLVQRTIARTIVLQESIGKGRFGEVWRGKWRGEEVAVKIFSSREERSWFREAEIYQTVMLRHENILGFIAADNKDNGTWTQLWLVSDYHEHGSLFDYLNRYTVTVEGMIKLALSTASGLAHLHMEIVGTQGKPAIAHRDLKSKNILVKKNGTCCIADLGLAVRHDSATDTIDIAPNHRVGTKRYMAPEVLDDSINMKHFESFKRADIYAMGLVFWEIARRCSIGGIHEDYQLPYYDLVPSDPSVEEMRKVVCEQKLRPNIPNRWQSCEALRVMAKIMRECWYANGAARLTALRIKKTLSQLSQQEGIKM
How it was run: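 Enzyme was preincubated with compound for 60 min at room temperature, then ATP (added from a 125 μM 5× stock with 2 mM DTT) started a 60 min reaction at 37 °C. EDTA plus Eu-anti-phospho-Topo2α (Thr1342) antibody stopped it; TR-FRET pIC50 values were converted to pKi by Cheng-Prusoff.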

[2] = test system: TGF-β-stimulated SMAD3 phosphorylation in BEAS-2B cells; assay: Cellular ALK5 potency assay, inhibition of TGF-β stimulated pSMAD3 formation in BEAS-2B cells; assay type: cell-based; conditions: Homo sapiens, pSMAD3, TGF-β 10 ng/mL, read-out: BEAS2B pIC50 (converted)
How it was run: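 Reported as pIC50, potency reflects dose-dependent loss of AlphaLISA pSMAD3 signal versus TGF-β-stimulated, compound-free BEAS-2B cells. Compound was applied for 1 h in BSA-containing HBSS buffer before a 30-min challenge with TGF-β at 10 ng/mL final.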

Cc1cccc(-c2nccc(Nc3ccnc(Nc4ccc(N5CCN(C6CCNC6)CC5)cc4)n3)n2)n1 (stereo not drawn) [Compound 429, N4-[2-(6-methyl-2-pyridyl)pyrimidin-4-yl]-N2-[4-(4-pyrrolidin-3-ylpiperazin-1-yl)phenyl]pyrimidine-2,4-diamine]
Ki [1]: 0.0398 to 0.316 nM | IC50 [2]: 200 to 1260 nM

Cc1cccc(-c2nccc(Nc3ccnc(Nc4cccc(S(=O)(=O)NCCN)c4)n3)n2)n1 [Compound 430, N-(2-aminoethyl)-3-[[4-[[2-(6-methyl-2-pyridyl)pyrimidin-4-yl]amino]pyrimidin-2-yl]amino]benzenesulfonamide]
Ki [1]: 0.0398 to 0.316 nM | IC50 [2]: 25.1 to 158 nM

COc1ccc(Nc2nccc(Nc3ccnc(-c4cccc(C)n4)n3)n2)cc1CN1C[C@@H](C)N[C@@H](C)C1 [Compound 431, N2-[4-methoxy-3-[[rac-(3R,5S)-3,5-dimethylpiperazin-1-yl]methyl]phenyl]-N4-[2-(6-methyl-2-pyridyl)pyrimidin-4-yl]pyrimidine-2,4-diamine]
Ki [1]: 0.0398 to 0.316 nM | IC50 [2]: 25.1 to 158 nM

Cc1cccc(-c2nccc(Nc3ccnc(Nc4ccc(N5CCC(N(C)Cc6ccccc6)CC5)cc4)n3)n2)n1 [Compound 432, N2-[4-[4-[benzyl(methyl)amino]-1-piperidyl]phenyl]-N4-[2-(6-methyl-2-pyridyl)pyrimidin-4-yl]pyrimidine-2,4-diamine]
Ki [1]: 0.0398 to 0.316 nM | IC50 [2]: 25.1 to 158 nM

Cc1cccc(-c2nccc(Nc3ccnc(Nc4ccc(N5CCCC(C(=O)OCC6CNC6)C5)cc4)n3)n2)n1 (stereo not drawn) [Compound 433, azetidin-3-ylmethyl 1-[4-[[4-[[2-(6-methyl-2-pyridyl)pyrimidin-4-yl]amino]pyrimidin-2-yl]amino]phenyl]piperidine-3-carboxylate]
Ki [1]: 0.0398 to 0.316 nM | IC50 [2]: 25.1 to 158 nM

Cc1cccc(-c2nccc(Nc3ccnc(Nc4ccc(C(=O)N5CCN(C)CC5)cc4)n3)n2)n1 [Compound 434, (4-methylpiperazin-1-yl)-[4-[[4-[[2-(6-methyl-2-pyridyl)pyrimidin-4-yl]amino]pyrimidin-2-yl]amino]phenyl]methanone]
Ki [1]: 0.0398 to 0.316 nM | IC50 [2]: 25.1 to 158 nM

Cc1cccc(-c2nccc(Nc3ccnc(Nc4ccc(NC(=O)N5C[C@@H](C)N[C@@H](C)C5)cc4)n3)n2)n1 [Compound 435, rac-(3S,5R)-3,5-dimethyl-N-[4-[[4-[[2-(6-methyl-2-pyridyl)pyrimidin-4-yl]amino]pyrimidin-2-yl]amino]phenyl]piperazine-1-carboxamide]
Ki [1]: 0.0398 to 0.316 nM | IC50 [2]: 25.1 to 158 nM

CN1CCN(C2CCN(c3ccc(Nc4nccc(Nc5ccnc(-c6cc(Cl)ccc6F)n5)n4)cc3)CC2)CC1 [Compound 436, N4-[2-(5-chloro-2-fluoro-phenyl)pyrimidin-4-yl]-N2-[4-[4-(4-methylpiperazin-1-yl)-1-piperidyl]phenyl]pyrimidine-2,4-diamine]
Ki [1]: 0.0398 to 0.316 nM | IC50 [2]: 25.1 to 158 nM

COC(=O)c1cnc(-c2cccc(C)n2)nc1Nc1ccnc(Nc2ccc(N)cc2)n1 [Compound 437, methyl 4-[[2-(4-aminoanilino)pyrimidin-4-yl]amino]-2-(6-methyl-2-pyridyl)pyrimidine-5-carboxylate]
Ki [1]: 0.398 to 3.16 nM | IC50 [2]: 25.1 to 158 nM

Cc1cccc(-c2nccc(Nc3ccnc(Nc4ccc(CN5CC(C)(N)C5)cc4)n3)n2)n1 [Compound 438, N2-[4-[(3-amino-3-methyl-azetidin-1-yl)methyl]phenyl]-N4-[2-(6-methyl-2-pyridyl)pyrimidin-4-yl]pyrimidine-2,4-diamine]
Ki [1]: 0.0398 to 0.316 nM | IC50 [2]: 25.1 to 158 nM

Cc1cccc(-c2nccc(Nc3ccnc(Nc4ccc(C(=O)O)s4)n3)n2)n1 [Compound 439, 5-[[4-[[2-(6-methyl-2-pyridyl)pyrimidin-4-yl]amino]pyrimidin-2-yl]amino]thiophene-2-carboxylic acid]
Ki [1]: 0.398 to 3.16 nM | IC50 [2]: 200 to 1260 nM

Cc1cccc(-c2nccc(Nc3ccnc(Nc4ccc(-c5cnn(CCN)c5)cc4)n3)n2)n1 [Compound 440, N2-[4-[1-(2-aminoethyl)pyrazol-4-yl]phenyl]-N4-[2-(6-methyl-2-pyridyl)pyrimidin-4-yl]pyrimidine-2,4-diamine]
Ki [1]: 0.0398 to 0.316 nM | IC50 [2]: 25.1 to 158 nM
